This is an account of results in patent publication US8742068B2, “Treatment and prevention of inflammatory diseases and autoimmune diseases” (Universiteit Utrecht Holding B.V., priority 2007, dated 2014).

Test [1] concerns DSS colitis. The test can be described thus: DSS colitis, peroral treatment (Prague study, 2nd part, Example 4). Format: in vivo, BALB/c mice. On the procedure: (§1) Fifteen conventional female Balb/c female mice (7 to 9 weeks old) were randomly separated in […] (five mice each). To evaluate the efficacy of per oral treatment, the antigens (full length Mycobacterial HSP70 protein) were administered together with 1 mg of Soybean trypsin inhibitor (SBTI, Sigma) dissolved in 50 μl of 0.15 M sodium bicarbonate, by gavage 4 times in one week interval. After one week the mice received 3% dextran sodium sulphate (DSS) in their drinking water continuously for up to 8 days. Colitis was evaluated on day 36 by a clinical activity score, by colon length and histological score.
• treated: 100 μl of sterile PBS/SBTI intragastrically (Control) Group B2 (HSP60+DSS): • treated: HSP60 30 μg/mouse in 100 μl of sterile PBS/SBTI (1:1) intragastrically Group C2 (HSP70+DSS): • treated: HSP70 30 μg/mouse in 100 μl of sterile PBS/SBTI (1:1) intragastrically Results

A further test relates to adjuvant arthritis. The settings on record: in vivo; cited from earlier work.
For test [2], the system named is DSS colitis. The test can be described thus: DSS colitis, peroral treatment (Prague study, 1st part, Example 3). Format: in vivo, BALB/c mice. How it is done: as §1, with “sulfate” for “sulphate”, “7” for “8”, “35” for “36”
• treated: 100 μl of sterile PBS/SBTI intragastrically (Control group) Group B1 (HSP60+DSS): • treated: HSP60 30 μg/mouse in 100 μl of sterile PBS/SBTI (1:1) intragastrically Group C1 (HSP70+DSS): • treated: HSP70 30 μg/mouse in 100 μl of sterile PBS/SBTI (1:1) intragastrically Results

Test [3] has as its system DSS colitis. The test is described as follows: DSS colitis (Utrecht study, Example 5). Conditions: for Colon Length (cm), average: 4 x 30 μg oral gavage, 3% DSS 7 days, n=10. Format: in vivo, BALB/c mice. On the procedure: This study is performed with female BALB/c mice aged 7 weeks at the start of the experiment. Groups of mice (n=10) were treated 4 times (days 7, 9, 11, 14) with 30 μg HSP70 in 100 μl PBS (Mt hsp70; batch 031205; 2.1 Endotoxin Units/mg) or vehicle (100 μl PBS), administered via oral gavage. 10 minutes prior to gavage animals received 2 mg soybean trypsin inhibitor (SBTI) in 0.15M sodium bicarbonate, pH 8.0. Colitis was induced by administering drinking water supplemented with 3% DSS during 7 days.
Disease onset was followed by determination of body weight and stool consistency, resulting in clinical state as explained in the table below.
At dissection, colon length was recorded
Colons were cut longitudinally and divided into parts to determine: • histology on formalin-fixed paraffin sections • MPO activity in homogenates (indicative for neutrophilic infiltrations) • Ex-vivo cytokine release (TNFα, IL10) from distal colon sample.
Total score is calculated by the adding the score for each parameter and divided by 3.
Distal colon samples were incubated for 24 h and IL10 content in supernatant was measured using a specific ELISA. IL10 release from distal colon sample in healthy BALB/c mice is 450±328 pg/g colon.

In another test the test system is TNBS-induced colitis. The test can be described thus: TNBS colitis (Example 6). In kind it is in vivo, BALB/c mice. How it is done:
Female BALB/c mice (Charles River-Germany), 10-12 weeks of age at start of the experiment, were either treated intragastrically or intranasally with full HSP70 [SEQ ID NO: 55] or HSP70 peptides (Mycobacterial HSP70 derived peptide “C1” shown in SEQ ID NO: 3 and mouse homologue peptide “mC1a” of SEQ ID NO: 4) prior to disease induction. Mice received 4×30 μg HSP70 intragastrically, in a period of 4 weeks. Stomach contents were neutralized by administering soybean trypsin inhibitor (SBTI) 10 minutes prior to oral HSP70 administration.
Intranasal treatment was performed with 4×30 μg HSP70 or 4×(67 μg peptide C1 (Mycobacterial tub. HSP70 peptide 141-155, VLRIVNEPTAAALAY) mixed with 33 μg peptide mC1a (=mouse Grp75 (hspa9) peptide 216-230, […])), in a period of 1 week.
Next, mice were sensitized by painting the shaved abdomen with 1 mg of TNBS in 100 μl 50% ethanol on two consecutive days, followed by a rectal challenge with 1 mg TNBS in 100 μl 40% ethanol, after 6 days. Mice were dissected 3 days later, and colonic inflammation was determined based on colon length, weight and morphology. Furthermore, cytokine production within colon and draining caudal lymph nodes (CLN) were determined.
• A. Oral PBS, sensitization TNBS, challenge TNBS (control group) • B. Oral (full length) HSP70, sensitization TNBS, challenge TNBS (oral group) • C. […]

Where [4] appears, read: 30 μg/mouse intragastrically with SBTI, 4 times before 3% DSS, 5 mice.
[5] abbreviates: Multiple Range Tests, * p < 0.05.

“HSP70: full length Mycobacterial HSP70 protein (SEQ ID NO: 55)”: in the test on DSS colitis [1] (setting [4]), the “Histological grade, Average” value stood at 1.225 and the “Weight change, Average” value is −0.44. Also, the “Histological grade, Difference (contrast PBS minus treatment)” value with DSS colitis [1] (Multiple Range Tests) is listed as 0.35. In the test on DSS colitis [1] (setting [5]), the “Colon length, Difference (contrast PBS minus treatment)” value is given as “*−1.02” and the “Weight change, Difference (contrast PBS minus treatment)” value is on record as “*−4.62”. The “symptoms of colitis compared to PBS” value with DSS colitis [1] (p=0.0057, 0.0387 and 0.0831 for colon length, weight loss and clinical state) is on record as “significantly mitigates the symptoms of colitis”. Also, in the test on adjuvant arthritis, the “development of adjuvant arthritis” value is reported as “reduce the development of adjuvant arthritis”. For the same substance, in the test on DSS colitis [2] (setting [4]), the “Histological grade, Average” value is 1.4 and the “Weight change, Average” value is on record as −2.04. In addition, in the test on DSS colitis [2] (30 μg/mouse intragastrically with SBTI, 4 times in one week interval before 3% DSS, day 35, 5 mice), the “Colon length, Average” value was determined as 6.36. For the same substance, in the test with DSS colitis [2] (setting [5]), the “Clinical state, Difference (contrast PBS minus treatment)” value is recorded as “*1.3332”; the “Colon length, Difference (contrast PBS minus treatment)” value is reported as −0.2; the “Histological grade, Difference (contrast PBS minus treatment)” value is given as “*0.75”; the “Weight change, Difference (contrast PBS minus treatment)” value is listed as “*−6.52”. Moreover, the effect on colitis entry with DSS colitis [2] (administered orally, prophylactically (prior to disease induction)) was “suppressive effect on colitis”. Besides, the “Clinical state, Average” value in the test on DSS colitis [2] (total score of weight loss, stool consistency, bleeding divided by 3, 30 μg/mouse intragastrically, 5 mice) stood at 2.1334. In addition, the “Colon Length (cm), average” value in the test on DSS colitis [3] was 6.8 cm. Besides, in the test on DSS colitis [3] (listed as HSP70 protein), the “Colon Length (cm), average” value is “less decreased”. Further, the “disease severity (clinical score, disease progression)” value in the test on DSS colitis [3] (pre-treatment 4 x 30 μg oral gavage) was “decreased disease severity”. Further, in the test on TNBS-induced colitis (orally given, CD3/CD28 restimulation of draining lymph node cells), the “IL-10 responses in the caudal lymphnodes” value is recorded as “elevated IL-10 responses”. In addition, the “effect on TNBS induced colitis” value in the test with TNBS-induced colitis (prophylactically, HSP70 4x30 μg orally or intranasally, peptides 4x(67 μg C1 + 33 μg mC1a) intranasally) is recorded as “suppressive effect on TNBS induced colitis”.
